Experimental data published in publication PMC9241695, “Selective Metal Chelation by a Thiosemicarbazone Derivative Interferes with Mitochondrial Respiration and Ribosome Biogenesis in Candida albicans” (Microbiology Spectrum, 2022).
Values after ≈ are worked out from the molar mass of the structure shown.

Key:
[1] = tested on: C. albicans SC5314; assay: Drug resistance study by serial passage; format: cell-based, Candida albicans; details: RPMI 1640 medium, 40-day period, passages at 0.5 × MIC
[2] = tested on: C. albicans F5; assay: Microbroth dilution MIC80; format: cell-based; details: Candida albicans; C. albicans F5; read-out: MIC80
Source text: (§1) Compound library. The thiosemicarbazone derivatives Triapine and COTI-2 were purchased from Med Chem Express (MCE). The other 87 thiosemicarbazones used in this study were previously synthesized by our collaborators (1, 2). Their structures are shown in Table 1 and Table S1 to help the reader clearly understand the relationship between structure and activity.
(§2) Strains and culture conditions. Clinically derived C. albicans isolates, including G5, F5, and Gu5, were kindly provided by Professor Joachim Morschhäuser of the University of Würzburg. Other clinical C. albicans isolates were kindly donated by Professor Qingguo Qi of Shandong University and Qianfoshan Hospital of Shandong Province Other Candida strains were obtained from Jinan Central Hospital.
(§3) The zap1 mutant and its complemented strain were kindly provided by Professor Aaron P. Mitchell of Carnegie Mellon University (3). The C. neoformans strains used in this study was kindly donated by Professor Guojian Liao of Southwest University and A. fumigatus strain used in this study was provided by Professor Ling Lu of Nanjing Normal University. Before in vitro and in vivo experiments, all C. albicans strains were grown on YPD agar plates. After culturing at 30°C for 24 h, colonies of each strain were cultured in liquid YPD medium at 30°C with continuous shaking […]
(§4) Antifungal susceptibility testing. To determine in vitro antifungal activities, the microbroth dilution method was carried out in RPMI1640 medium according to the guidelines of the Clinical and Laboratory Standards Institute (4, 5). The initial concentration in RPMI1640 medium was 1 × 10^3 CFU/mL for the C. albicans and C. neoformans suspensions but 1 × 10^4 CFU/mL for A. fumigatus. The range of final drug concentrations was 0.0156–64 μg/mL. The plates were incubated at35°C for 24 […]
(§5) h (for C. albicans, C. krusei, C. tropicalis, C. parapsilosis) or 48 h (for C. neoformans, A. fumigatus). The MIC was determined based on visible growth inhibition compared with the control. All experiments were performed in duplicate. […]

[3] = tested on: C. albicans 28A; assay: Microbroth dilution MIC80; format: cell-based; details: Candida albicans; C. albicans 28A; read-out: MIC80
Source text: as §1, §2, §3, §4, §5

[4] = tested on: C. albicans 28I; assay: Microbroth dilution MIC80; format: cell-based; details: Candida albicans; C. albicans 28I; read-out: MIC80
Source text: as §1, §2, §3, §4, §5

[5] = tested on: C. albicans CA4; assay: Microbroth dilution MIC80; format: cell-based; details: Candida albicans; C. albicans CA4; read-out: MIC80
Source text: as §1, §2, §3, §4, §5

[6] = tested on: C. albicans 24g; assay: Microbroth dilution MIC80; format: cell-based; details: Candida albicans; C. albicans 24g; read-out: MIC80
Source text: as §1, §2, §3, §4, §5

[7] = tested on: C. albicans CA1; assay: Microbroth dilution MIC80; format: cell-based; details: Candida albicans; C. albicans CA1; read-out: MIC80
Source text: as §1, §2, §3, §4, §5

[8] = tested on: C. neoformans 108; assay: Microbroth dilution MIC80; format: cell-based; details: Cryptococcus neoformans; C. neoformans 108; read-out: MIC80
Source text: as §1, §2, §3, §4, §5

[9] = tested on: C. albicans CA3; assay: Microbroth dilution MIC80; format: cell-based; details: Candida albicans; C. albicans CA3; read-out: MIC80
Source text: as §1, §2, §3, §4, §5

[10] = tested on: C. albicans 11f; assay: Microbroth dilution MIC80; format: cell-based; details: Candida albicans; C. albicans 11f; read-out: MIC80
Source text: as §1, §2, §3, §4, §5

[11] = tested on: C. albicans DSY654; assay: Microbroth dilution MIC80; format: cell-based; details: Candida albicans
Source text: as §1, §2, §3, §4, §5

[12] = tested on: C. albicans YEM13; assay: Microbroth dilution MIC80; format: cell-based; details: Candida albicans
Source text: as §1, §2, §3, §4, §5

[13] = tested on: C. tropicalis CT2; assay: Microbroth dilution MIC80; format: cell-based; details: Candida tropicalis; C. tropicalis CT2; read-out: MIC80
Source text: as §1, §2, §3, §4, §5

[14] = tested on: C. albicans YEM15; assay: Microbroth dilution MIC80; format: cell-based; details: Candida albicans; C. albicans YEM15; read-out: MIC80
Source text: as §1, §2, §3, §4, §5

[15] = tested on: A. fumigatus 1161; assay: Microbroth dilution MIC80; format: cell-based; details: Aspergillus fumigatus; A. fumigatus 1161; read-out: MIC80
Source text: as §1, §2, §3, §4, §5

[16] = tested on: C. albicans 11e; assay: Microbroth dilution MIC80; format: cell-based; details: Candida albicans; C. albicans 11e; read-out: MIC80
Source text: as §1, §2, §3, §4, §5

[17] = tested on: C. albicans 28D; assay: Microbroth dilution MIC80; format: cell-based; details: Candida albicans; C. albicans 28D; read-out: MIC80
Source text: as §1, §2, §3, §4, §5

[18] = tested on: C. krusei CK1; assay: Microbroth dilution MIC80; format: cell-based, Candida krusei; details: Pichia kudriavzevii; C. krusei CK1; read-out: MIC80
Source text: as §1, §2, §3, §4, §5

[19] = tested on: C. albicans SC5314; assay: G. mellonella infection model; format: in vivo, Galleria mellonella; details: 19ak 0.4 μg per larva, FLC 2 μg per larva
Protocol: The G. mellonella infection model was used to evaluate the in vivo activity of 19ak in terms of survival, fungal burden, and histological features. A total of 60 larvae of similar size were selected and randomly allocated to four groups. The last right foreleg of each larva was injected with 10 μL of C. albicans SC5314 suspension (2 × 10^7 CFU/mL). Two hours after infection, the larvae were injected with 10 μL of drug or vehicle as follows for the four groups: 19ak (0.4 μg per larva), FLC (2 μg per larva), control (PBS), and blank control (no injection with C. albicans but injections of sterile PBS twice). The data for the blank control are not shown because this group survived well during the experiment. Failure to respond to light contact with forceps was considered a sign of larval death. In the survival assay, the number of surviving larvae in each group was calculated at the same time every day for 4 days.
To determine fungal burden, larval infection and treatment were performed as described above with groups of 30 larvae each. Each day, five larvae were randomly selected from each group and homogenized with glass beads in 0.5 mL of sterile PBS. The homogenate was serially diluted with sterile PBS, and 5 μL was spread on a yeast-peptone-dextrose solid plate ([62]). Experiments were performed at least three times independently.
We also conducted histopathological studies to explore the therapeutic effects of the drugs on G. mellonella fungal infection. First, the groups of larvae were infected as described above. After 48 h, three larvae from each group were randomly selected and fixed in 4% paraformaldehyde for sectioning and Periodic acid-Schiff (PAS) staining. The tissue was observed and photographed under an Olympus microscope with 40 × magnification (IX71, Olympus, Tokyo, Japan). The experiments were performed independently a minimum of three times.

[20] = tested on: C. albicans Gu5; assay: microbe, parasite or virus in culture; format: cell-based; details: Candida albicans; C. albicans Gu5; read-out: MIC80
Source text: as §1, §2, §3, §4, §5

[21] = tested on: C. albicans G5; assay: microbe, parasite or virus in culture; format: cell-based; details: Candida albicans; C. albicans G5; read-out: MIC80
Source text: as §1, §2, §3, §4, §5

[22] = tested on: C. albicans SC5314; assay: Antifungal susceptibility testing, microbroth dilution MIC; format: cell-based; details: Candida albicans, SC5314; C. albicans wild-type strain; RPMI1640, 35°C, 24 h; read-out: MIC (μg/mL) against fungi SC5314
Source text: as §1, §2, §3, §4, §5

[23] = tested on: A. fumigatus AF293; assay: as above; format: cell-based; details: Aspergillus fumigatus, AF293; standard strain of A. fumigatus; 48 h; read-out: MIC (μg/mL) against fungi AF293
Source text: as §1, §2
(§6) The zap1 mutant and its complemented strain were kindly provided by Professor Aaron P. Mitchell of Carnegie Mellon University (3). The C. neoformans strains used in this study was kindly donated by Professor Guojian Liao of Southwest University and A. fumigatus strain used in this study was provided by Professor Ling Lu of Nanjing Normal University. […]
as §4, §5

[24] = tested on: C. neoformans H99; assay: as above; format: cell-based; details: Cryptococcus neoformans, H99; C. neoformans wild-type strain; 48 h; read-out: MIC (μg/mL) against fungi H99
Source text: as §1, §2, §6, §4, §5

[25] = tested on: C. parapsilosis CP001; assay: Microbroth dilution MIC80; format: cell-based, Candida parapsilosis; details: Lodderomyces parapsilosis; C. parapsilosis CP001; read-out: MIC80
Source text: as §1, §2, §3, §4, §5

**Q.** Which results are given for `OC(Cn1cncn1)(Cn1cncn1)c1ccc(F)cc1F` [FLC, fluconazole, reference compound]?
**A.** Change of MIC after repeated exposure [1]: significant increase in the MIC value; MIC80 [2]: > 128 µg/mL; MIC80 [3]: > 128 µg/mL; MIC80 [4]: > 128 µg/mL; MIC80 [5]: 8 µg/mL (≈ 26.1 µM); MIC80 [6]: 1 µg/mL (≈ 3.27 µM); MIC80 [7]: 2 µg/mL (≈ 6.53 µM); MIC80 [8]: 2 µg/mL (≈ 6.53 µM); MIC80 [9]: 2 µg/mL (≈ 6.53 µM); MIC80 [10]: 1 µg/mL (≈ 3.27 µM); MIC80 [11]: 0.25 µg/mL (≈ 0.816 µM); MIC80 [12]: 64 µg/mL (≈ 209 µM); MIC80 [13]: 2 µg/mL (≈ 6.53 µM); MIC80 [14]: 64 µg/mL (≈ 209 µM); MIC80 [15]: > 64 µg/mL; MIC80 [16]: 1 µg/mL (≈ 3.27 µM); MIC80 [17]: > 128 µg/mL; MIC80 [18]: 2 µg/mL (≈ 6.53 µM); Histopathology of infected larvae ([19]; 48 h, PAS staining): fewer infected areas; Fungal burden of infected larvae ([19]; compared with the control group): greatly reduced the fungal burden; MIC80 [20]: > 128 µg/mL; MIC80 [21]: > 128 µg/mL; MIC [22]: 2 µg/mL (≈ 6.53 µM); MIC [23]: > 64 µg/mL; MIC [24]: 2 µg/mL (≈ 6.53 µM); MIC80 [25]: 1 µg/mL (≈ 3.27 µM)
